Measured values: ChEMBL document CHEMBL1201862, “PubChem BioAssay data set” (2004)
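Growth conditions: 96-well plates. Treatment: test compound, 48 hours, 5 concentrations. Analysis: linear interpolation between bracketing concentrations; unreached endpoints set to highest concentration. GI50 = concentration required for 50% inhibition of growth.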 The source made the active and inactive calls. No stated cut-off is given here; in the data, active = GI50 up to about 1.1 µM and inactive = higher.

What was measured:
Assay in all cases: NCI-60 cell line screen, 48 h
[1] = tested on: 786-0
[2] = tested on: A498
[3] = tested on: A549
[4] = tested on: ACHN
[5] = tested on: BT-549
[6] = tested on: CAKI-1
[7] = tested on: CCRF-CEM
[8] = tested on: COLO 205
[9] = tested on: DU-145
[10] = tested on: EKVX
[11] = tested on: HCC 2998
[12] = tested on: HCT-116
[13] = tested on: HCT-15
[14] = tested on: HL-60
[15] = tested on: HOP-62
[16] = tested on: HT-29
[17] = tested on: Hs-578T
[18] = tested on: IGROV-1
[19] = tested on: K562
[20] = tested on: KM12
[21] = tested on: LOX IMVI
[22] = tested on: M14
[23] = tested on: MCF7
[24] = tested on: MDA-MB-231
[25] = tested on: MDA-MB-435
[26] = tested on: MDA-N
[27] = tested on: MOLT-4
[28] = tested on: Malme-3M
[29] = tested on: NCI-H226
[30] = tested on: NCI-H23
[31] = tested on: NCI-H460
[32] = tested on: NCI-H522
[33] = tested on: NCI/ADR-RES
[34] = tested on: OVCAR-3
[35] = tested on: OVCAR-4
[36] = tested on: OVCAR-5
[37] = tested on: OVCAR-8
[38] = tested on: PC-3
[39] = tested on: RPMI-8226
[40] = tested on: RXF 393
[41] = tested on: SF-268
[42] = tested on: SF-295
[43] = tested on: SF-539
[44] = tested on: SK-MEL-28
[45] = tested on: SK-MEL-2
[46] = tested on: SK-MEL-5
[47] = tested on: SK-OV-3
[48] = tested on: SN12C
[49] = tested on: SNB-19
[50] = tested on: SNB-75
[51] = tested on: SR
[52] = tested on: SW-620
[53] = tested on: T47D
[54] = tested on: U-251
[55] = tested on: UACC-257
[56] = tested on: UACC-62
[57] = tested on: UO-31
[58] = tested on: TK-10

Compound: CCOC(=O)C(=O)/C(=C/NC(=S)c1ccncc1)C(=O)OCC
- GI50 [1]: > 100 µM (inactive)
- GI50 [2]: > 100 µM (inactive)
- GI50 [3]: > 100 µM (inactive)
- GI50 [4]: > 100 µM (inactive)
- GI50 [5]: > 100 µM (inactive)
- GI50 [6]: > 100 µM (inactive)
- GI50 [7]: > 100 µM (inactive)
- GI50 [8]: > 100 µM (inactive)
- GI50 [9]: > 100 µM (inactive)
- GI50 [10]: > 100 µM (inactive)
- GI50 [11]: > 100 µM (inactive)
- GI50 [12]: > 100 µM (inactive)
- GI50 [13]: > 100 µM
- GI50 [14]: > 100 µM (inactive)
- GI50 [15]: > 100 µM (inactive)
- GI50 [16]: > 100 µM (inactive)
- GI50 [17]: > 100 µM (inactive)
- GI50 [18]: > 100 µM (inactive)
- GI50 [19]: > 100 µM (inactive)
- GI50 [20]: > 100 µM (inactive)
- GI50 [21]: > 100 µM (inactive)
- GI50 [22]: > 100 µM (inactive)
- GI50 [23]: > 100 µM (inactive)
- GI50 [24]: > 100 µM (inactive)
- GI50 [25]: > 100 µM (inactive)
- GI50 [26]: > 100 µM (inactive)
- GI50 [27]: > 100 µM (inactive)
- GI50 [28]: > 100 µM (inactive)
- GI50 [29]: > 100 µM (inactive)
- GI50 [30]: > 100 µM (inactive)
- GI50 [31]: > 100 µM (inactive)
- GI50 [32]: > 100 µM (inactive)
- GI50 [33]: > 100 µM (inactive)
- GI50 [34]: 0.0724 µM (active)
- GI50 [35]: > 100 µM (inactive)
- GI50 [36]: > 100 µM (inactive)
- GI50 [37]: > 100 µM (inactive)
- GI50 [38]: > 100 µM (inactive)
- GI50 [39]: > 100 µM (inactive)
- GI50 [40]: > 100 µM (inactive)
- GI50 [41]: > 100 µM (inactive)
- GI50 [42]: > 100 µM (inactive)
- GI50 [43]: > 100 µM (inactive)
- GI50 [44]: > 100 µM (inactive)
- GI50 [45]: > 100 µM (inactive)
- GI50 [46]: > 100 µM (inactive)
- GI50 [47]: > 100 µM (inactive)
- GI50 [48]: > 100 µM (inactive)
- GI50 [49]: 9.68 µM (inactive)
- GI50 [50]: > 100 µM (inactive)
- GI50 [51]: > 100 µM (inactive)
- GI50 [52]: > 100 µM (inactive)
- GI50 [53]: > 100 µM (inactive)
- GI50 [54]: > 100 µM (inactive)
- GI50 [55]: > 100 µM (inactive)
- GI50 [56]: > 100 µM (inactive)
- GI50 [57]: 5.71 µM (inactive)

Compound: CNC1=Nc2ccccc2C(=O)N2CSCC12 (configuration not stated)
- GI50 [1]: > 100 µM (inactive)
- GI50 [2]: > 100 µM (inactive)
- GI50 [3]: > 100 µM (inactive)
- GI50 [4]: > 100 µM (inactive)
- GI50 [5]: > 100 µM (inactive)
- GI50 [6]: > 100 µM (inactive)
- GI50 [7]: > 100 µM (inactive)
- GI50 [8]: > 100 µM (inactive)
- GI50 [9]: > 100 µM (inactive)
- GI50 [10]: > 100 µM (inactive)
- GI50 [11]: > 100 µM (inactive)
- GI50 [12]: > 100 µM (inactive)
- GI50 [13]: > 100 µM
- GI50 [15]: > 100 µM (inactive)
- GI50 [16]: > 100 µM (inactive)
- GI50 [17]: > 100 µM (inactive)
- GI50 [18]: > 100 µM (inactive)
- GI50 [19]: > 100 µM (inactive)
- GI50 [20]: > 100 µM (inactive)
- GI50 [21]: > 100 µM (inactive)
- GI50 [22]: > 100 µM (inactive)
- GI50 [23]: > 100 µM (inactive)
- GI50 [24]: > 100 µM (inactive)
- GI50 [25]: > 100 µM (inactive)
- GI50 [26]: > 100 µM (inactive)
- GI50 [27]: > 100 µM (inactive)
- GI50 [28]: > 100 µM (inactive)
- GI50 [29]: > 100 µM (inactive)
- GI50 [31]: > 100 µM (inactive)
- GI50 [32]: 23.9 µM (inactive)
- GI50 [33]: > 100 µM (inactive)
- GI50 [34]: > 100 µM (inactive)
- GI50 [35]: > 100 µM (inactive)
- GI50 [36]: > 100 µM (inactive)
- GI50 [37]: > 100 µM (inactive)
- GI50 [38]: > 100 µM (inactive)
- GI50 [39]: > 100 µM (inactive)
- GI50 [40]: > 100 µM (inactive)
- GI50 [41]: > 100 µM (inactive)
- GI50 [42]: > 100 µM (inactive)
- GI50 [44]: > 100 µM (inactive)
- GI50 [45]: > 100 µM (inactive)
- GI50 [46]: > 100 µM (inactive)
- GI50 [47]: > 100 µM (inactive)
- GI50 [48]: > 100 µM (inactive)
- GI50 [49]: > 100 µM (inactive)
- GI50 [50]: > 100 µM (inactive)
- GI50 [51]: > 100 µM (inactive)
- GI50 [52]: > 100 µM (inactive)
- GI50 [53]: > 100 µM (inactive)
- GI50 [58]: > 100 µM (inactive)
- GI50 [54]: > 100 µM (inactive)
- GI50 [55]: > 100 µM (inactive)
- GI50 [56]: > 100 µM (inactive)
- GI50 [57]: > 100 µM (inactive)
